According to US20200223889A1, “Bicyclic Compounds Capable of Binding to Melanocortin 4 Receptor” (Novo Nordisk A/S, priority 2017, published 2020):
Like-named read-outs stand apart in the source and are kept apart here. Positions of bridges follow the written chain, without caps; N, C: chain ends. Non-standard residues stand in square brackets, D forms with d. Residues, ends and D or L forms follow the SMILES beside them. Phe(3,4-Cl2) = N[C@@H](Cc1ccc(Cl)c(Cl)c1)C(=O)O; Pip = O=C(O)[C@@H]1CCCCN1; Aib = CC(C)(N)C(=O)O; Sar = CNCC(=O)O

Key:
[1] = biological target: T1, human MC4R (Homo sapiens, UniProt P32245); experiment: 125NDP-α-MSH competitive binding to membranes of BHK cells expressing human MC4 receptor (filtration assay)
T1 construct: expressed in transfected cells
T1 sequence (P32245 whole entry): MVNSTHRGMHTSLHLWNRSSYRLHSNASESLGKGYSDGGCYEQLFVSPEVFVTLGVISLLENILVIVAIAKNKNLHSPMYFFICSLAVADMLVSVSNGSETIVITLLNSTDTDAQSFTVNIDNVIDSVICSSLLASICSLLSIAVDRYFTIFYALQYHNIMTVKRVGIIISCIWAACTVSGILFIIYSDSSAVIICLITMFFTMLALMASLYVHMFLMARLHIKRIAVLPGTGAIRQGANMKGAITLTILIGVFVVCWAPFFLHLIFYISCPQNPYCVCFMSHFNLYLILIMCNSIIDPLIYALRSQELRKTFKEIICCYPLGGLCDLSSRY
Method in brief: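 Displacement of ^125NDP-α-MSH (apx. […] final) was measured by filtration after 2 h at 25 °C, using diluted membranes of stably transfected BHK cells in pH 7.0 HEPES buffer. Compounds spanned 1 μM to 0.001 nM; binding curves were analysed by non-linear regression.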

[2] = biological target: T1, human MC4R; experiment: Functional cAMP assay (CisBio HTRF) in BHK cells expressing human MC4R; assay type: cell-based; conditions: for MC1R/MC4R cAMP EC50 ratio: MC1R cAMP EC50 divided by MC4R cAMP EC50
Method in brief: (§1)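 Stably transfected BHK cells expressing human MC1R or MC4R; cAMP quantified by HTRF (cAMP-d2/cryptate) after 30 min compound stimulation at 25 °C in DMEM-based buffer with 1 mM IBMX. Compounds were prepared as 10-fold serial dilutions starting at 2 μM (working solution, 2× final). Readout after 1 h at 25 °C; non-linear regression.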

[3] = biological target: T2, human MC1R (Homo sapiens, UniProt Q01726); experiment: Functional cAMP assay (CisBio HTRF) in BHK cells expressing human MC1R; assay type: cell-based
T2 construct: expressed in transfected cells
T2 sequence (Q01726 whole entry): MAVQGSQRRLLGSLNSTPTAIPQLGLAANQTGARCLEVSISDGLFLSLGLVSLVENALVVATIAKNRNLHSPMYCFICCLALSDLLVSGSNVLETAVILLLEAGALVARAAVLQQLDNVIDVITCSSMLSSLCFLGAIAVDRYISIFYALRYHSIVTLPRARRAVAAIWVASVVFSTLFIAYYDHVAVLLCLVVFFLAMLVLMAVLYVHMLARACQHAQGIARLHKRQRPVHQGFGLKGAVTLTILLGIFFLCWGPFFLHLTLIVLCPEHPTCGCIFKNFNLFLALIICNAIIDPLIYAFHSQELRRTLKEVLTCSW
Method in brief: as §1

[4] = human MC4R, BHK cell membranes, 125NDP-α-MSH radioligand, read-out: MC4R binding Ki
[5] = BHK cells expressing human MC4R, '>' = highest dose used with no response, read-out: MC4R cAMP EC50
[6] = BHK cells expressing human MC1R, '>' = highest dose used with no response, read-out: MC1R cAMP EC50

Row | SMILES | Ki [1, 4] [nM] | EC50 [2, 5] [nM] | MC1R/MC4R cAMP EC50 ratio [2] | EC50 [3, 6] [nM] | Ki [1] [nM] | EC50 [2] [nM] | EC50 [3] [nM]
1 | C[C@@H]1NC(=O)[C@@H]2CSSC[C@H](NC(=O)[C@H](Cc3c[nH]c4ccccc34)NC(=O)[C@H](CCCNC(=N)N)NC(=O)[C@@H](Cc3ccccc3)NC(=O)[C@H](Cc3c[nH]cn3)NC1=O)C(=O)N[C@@H](C)C(=O)N[C@@H](CCCCN)C(=O)N[C@@H](CCCCN)C(=O)N[C@@H](CCCCN)C(=O)N[C@@H](CCCNC(=N)N)C(=O)N2 [Chem. 59, c[c[Cys-Ala-His-D-Phe-Arg-Trp-Cys]- Ala-Lys-Lys-Lys-Arg]] (cyclo(AH[dF]RWCAKKKRC); disulfide 6-12) | 0.01 | 0.004 | 40 | 0.16 | – | – | –
2 | C[C@@H]1NC(=O)[C@@H]2CSSC[C@H](NC(=O)[C@H](Cc3c[nH]c4ccccc34)NC(=O)[C@H](CCCCN)NC(=O)[C@H](CCCCN)NC(=O)[C@H](CCCCN)NC1=O)C(=O)NC(C)(C)C(=O)N[C@@H](Cc1c[nH]cn1)C(=O)N[C@H](Cc1ccccc1)C(=O)N[C@@H](Cc1c[nH]cn1)C(=O)N[C@@H](Cc1c[nH]c3ccccc13)C(=O)N2 [Chem. 61, c[c[Cys-Aib-His-D-Phe-His-Trp-Cys]- Ala-Lys-Lys-Lys-Trp]] (cyclo(AKKKWC[Aib]H[dF]HWC); disulfide 6-12) | 0.22 | 0.31 | >3 | > 1 | – | – | –
3 | C[C@@H]1NC(=O)[C@@H]2CSSC[C@H](NC(=O)[C@H](Cc3c[nH]c4ccccc34)NC(=O)[C@H](CCCCN)NC(=O)[C@H](CCCCN)NC(=O)[C@H](CCCCN)NC1=O)C(=O)N1CCC[C@H]1C(=O)N[C@@H](Cc1c[nH]cn1)C(=O)N[C@H](Cc1ccccc1)C(=O)N[C@@H](Cc1c[nH]cn1)C(=O)N[C@@H](Cc1c[nH]c3ccccc13)C(=O)N2 [Chem. 62, c[c[Cys-Pro-His-D-Phe-His-Trp-Cys]- Ala-Lys-Lys-Lys-Trp]] (cyclo(AKKKWCPH[dF]HWC); disulfide 6-12) | 0.13 | 0.17 | >6 | > 1 | – | – | –
4 | C[C@@H]1NC(=O)[C@@H]2CSSC[C@H](NC(=O)[C@H](Cc3ccc(Cl)c(Cl)c3)NC(=O)[C@H](CCCNC(=N)N)NC(=O)[C@@H](Cc3ccccc3)NC(=O)[C@H](Cc3c[nH]cn3)NC1=O)C(=O)N[C@@H](C)C(=O)N[C@@H](CCCCN)C(=O)N[C@@H](CCCCN)C(=O)N[C@@H](CCCCN)C(=O)N[C@@H](Cc1c[nH]c3ccccc13)C(=O)N2 [Chem. 66, c[c[Cys-Ala-His-D-Phe-Arg-3,4-DiCl- Phe-Cys]-Ala-Lys-Lys-Lys-Trp]] (cyclo(AH[dF]R[Phe(3,4-Cl2)]CAKKKWC); disulfide 6-12) | 0.03 | 0.01 | 22 | 0.22 | – | – | –
5 | C[C@@H]1NC(=O)[C@@H]2CSSC[C@H](NC(=O)[C@H](Cc3c[nH]c4ccccc34)NC(=O)[C@H](CCCCN)NC(=O)[C@H](CCCCN)NC(=O)[C@H](CCCCN)NC1=O)C(=O)N(C)CC(=O)N[C@@H](Cc1c[nH]cn1)C(=O)N[C@H](Cc1ccccc1)C(=O)N[C@@H](Cc1c[nH]cn1)C(=O)N[C@@H](Cc1c[nH]c3ccccc13)C(=O)N2 [Chem. 73, c[c[Cys-Sar-His-D-Phe-His-Trp-Cys]- Ala-Lys-Lys-Lys-Trp]] (cyclo(AKKKWC[Sar]H[dF]HWC); disulfide 6-12) | 0.3 | – | >40 | > 50 | – | – | –
6 | C[C@@H]1NC(=O)[C@@H]2CSSC[C@H](NC(=O)[C@H](CCCNC(=N)N)NC(=O)[C@H](CCCCN)NC(=O)[C@H](CCCCN)NC(=O)[C@H](CCCCN)NC1=O)C(=O)N(C)CC(=O)N[C@@H](Cc1c[nH]cn1)C(=O)N[C@H](Cc1ccccc1)C(=O)N[C@@H](Cc1c[nH]cn1)C(=O)N[C@@H](Cc1c[nH]c3ccccc13)C(=O)N2 [Chem. 74, c[c[Cys-Sar-His-D-Phe-His-Trp-Cys]- Ala-Lys-Lys-Lys-Arg]] (cyclo(AKKKRC[Sar]H[dF]HWC); disulfide 6-12) | 0.08 | 0.29 | 19 | > 5.5 | – | – | –
7 | C[C@@H]1NC(=O)[C@@H]2CSSC[C@H](NC(=O)[C@H](Cc3c[nH]c4ccccc34)NC(=O)[C@H](CCCNC(=N)N)NC(=O)[C@@H](Cc3ccccc3)NC(=O)[C@H](Cc3c[nH]cn3)NC1=O)C(=O)N[C@@H](C)C(=O)N[C@@H](Cc1ccc(O)cc1)C(=O)N[C@@H](Cc1ccccc1)C(=O)N[C@@H](CCCCN)C(=O)N[C@@H](Cc1c[nH]c3ccccc13)C(=O)N2 [Chem. 80, c[c[Cys-Ala-His-D-Phe-Arg-Trp-Cys]- Ala-Tyr-Phe-Lys-Trp]] (cyclo(AH[dF]RWCAYFKWC); disulfide 6-12) | 0.16 | 0.15 | 58 | 8.65 | – | – | –
8 | C[C@@H]1NC(=O)[C@@H]2CSSC[C@H](NC(=O)[C@H](Cc3c[nH]c4ccccc34)NC(=O)[C@H](CCCCN)NC(=O)[C@H](CCCCN)NC(=O)[C@H](CCCCN)NC1=O)C(=O)N1CCCC[C@H]1C(=O)N[C@@H](Cc1c[nH]cn1)C(=O)N[C@H](Cc1ccccc1)C(=O)N[C@@H](Cc1c[nH]cn1)C(=O)N[C@@H](Cc1c[nH]c3ccccc13)C(=O)N2 [Chem. 83, c[c[Cys-PIP-His-D-Phe-His-Trp-Cys]- Ala-Lys-Lys-Lys-Trp]] (cyclo(AKKKWC[Pip]H[dF]HWC); disulfide 6-12) | 0.17 | – | >5 | > 10 | – | – | –
9 | C[C@@H]1NC(=O)[C@@H]2CSSC[C@H](NC(=O)[C@H](CCCNC(=N)N)NC(=O)[C@H](CCCCN)NC(=O)[C@H](CCCCN)NC(=O)[C@H](CCCCN)NC1=O)C(=O)N[C@H](C)C(=O)N[C@@H](Cc1c[nH]cn1)C(=O)N[C@H](Cc1ccccc1)C(=O)N[C@@H](CCCNC(=N)N)C(=O)N[C@@H](Cc1c[nH]c3ccccc13)C(=O)N2 [Chem. 85, c[c[Cys-D-Ala-His-D-Phe-Arg-Trp- Cys]-Ala-Lys-Lys-Lys-Arg]] (cyclo(AKKKRC[dA]H[dF]RWC); disulfide 6-12) | 0.02 | 0.01 | 22 | 0.22 | – | – | –
10 | C[C@@H]1NC(=O)[C@H](C)NC(=O)[C@H](C)NC(=O)[C@@H]2CSSC[C@H](NC(=O)[C@H](Cc3c[nH]c4ccccc34)NC(=O)[C@H](C)NC1=O)C(=O)N[C@@H](C)C(=O)N[C@@H](Cc1c[nH]cn1)C(=O)N[C@H](Cc1ccccc1)C(=O)N[C@@H](CCCNC(=N)N)C(=O)N[C@@H](Cc1c[nH]c3ccccc13)C(=O)N2 [Chem. 87, c[c[Cys-Ala-His-D-Phe-Arg-Trp-Cys]- Ala-Ala-Ala-Ala-Trp]] (cyclo(AAAAWCAH[dF]RWC); disulfide 6-12) | – | – | 35 | – | 0.17 | 0.04 | 1.39
11 | C[C@@H]1NC(=O)[C@H](C)NC(=O)[C@@H]2CSSC[C@H](NC(=O)[C@H](Cc3c[nH]c4ccccc34)NC(=O)[C@H](C)NC(=O)[C@@H](C)NC1=O)C(=O)N[C@@H](C)C(=O)N[C@@H](Cc1c[nH]cn1)C(=O)N[C@H](Cc1ccccc1)C(=O)N[C@@H](CCCNC(=N)N)C(=O)N[C@@H](Cc1c[nH]c3ccccc13)C(=O)N2 [Chem. 88, c[c[Cys-Ala-His-D-Phe-Arg-Trp-Cys]- Ala-Ala-D-Ala-Ala-Trp]] (cyclo(AA[dA]AWCAH[dF]RWC); disulfide 6-12) | – | – | 66 | – | 0.2 | 0.02 | 1.31
12 | C[C@@H]1NC(=O)[C@H](C)NC(=O)[C@H](C)NC(=O)[C@@H]2CSSC[C@H](NC(=O)[C@H](CCCNC(=N)N)NC(=O)[C@H](C)NC1=O)C(=O)N[C@@H](C)C(=O)N[C@@H](Cc1c[nH]cn1)C(=O)N[C@H](Cc1ccccc1)C(=O)N[C@@H](CCCNC(=N)N)C(=O)N[C@@H](Cc1c[nH]c3ccccc13)C(=O)N2 [Chem. 89, c[c[Cys-Ala-His-D-Phe-Arg-Trp-Cys]- Ala-Ala-Ala-Ala-Arg]] (cyclo(AAAARCAH[dF]RWC); disulfide 6-12) | – | – | 30 | – | 0.07 | 0.02 | 0.59
13 | C[C@@H]1NC(=O)[C@H](C)NC(=O)[C@@H]2CSSC[C@H](NC(=O)[C@H](CCCNC(=N)N)NC(=O)[C@H](C)NC(=O)[C@@H](C)NC1=O)C(=O)N[C@@H](C)C(=O)N[C@@H](Cc1c[nH]cn1)C(=O)N[C@H](Cc1ccccc1)C(=O)N[C@@H](CCCNC(=N)N)C(=O)N[C@@H](Cc1c[nH]c3ccccc13)C(=O)N2 [Chem. 90, c[c[Cys-Ala-His-D-Phe-Arg-Trp-Cys]- Ala-Ala-D-Ala-Ala-Arg]] (cyclo(AA[dA]ARCAH[dF]RWC); disulfide 6-12) | – | – | 65 | – | 0.11 | 0.01 | 0.65
